# Results reported in patent US20260272907A1, “Therapeutic Tyrosine Kinase Inhibitors for Multiple Sclerosis” (Principia Biopharma Inc., priority 2022, published 2026).
# Tested on: patients with relapsing multiple sclerosis
# Assay: Phase 2b dose-finding study: adverse events (TEAEs, SAEs, AESIs), safety population
# Conditions: for Adverse event: Accidental overdose / Adverse event: Alanine aminotransferase increased / Adverse event: Alopecia / Adverse event: Back pain / Adverse event: Gastroenteritis / Adverse event: Headache / Adverse event: Muscle spasticity / Adverse event: Nasopharyngitis / Adverse event: Oropharyngeal pain / Adverse event: Peripheral edema / Adverse event: Respiratory tract infection / Adverse event: Upper respiratory tract infection: 12 weeks treatment
# [1] = BTKi 5 mg (n = 33), Weeks 1 to 12
# [2] = BTKi 15 mg (N = 16), Weeks 1 to 4
# [3] = BTKi 15 mg (n = 32), Weeks 1 to 12
# [4] = BTKi 30 mg (N = 16), Weeks 1 to 4
# [5] = BTKi 30 mg (n = 33), Weeks 1 to 12
# [6] = BTKi 60 mg (N = 16), Weeks 1 to 4
# [7] = BTKi 60 mg (n = 32), Weeks 1 to 12
# [8] = BTKi 5 (N = 32), BTK inhibitor treatment period, safety population
# [9] = BTKi 15 (N = 32), BTK inhibitor treatment period, safety population
# [10] = BTKi 30 (N = 33), BTK inhibitor treatment period, safety population
# [11] = BTKi 60 (N = 33), BTK inhibitor treatment period, safety population
smiles,measurement,setting,value
"C=CC(=O)N1CCC[C@@H](n2c(=O)n(-c3ccc(Oc4ccccc4)cc3)c3c(N)nccc32)C1 [the BTK inhibitor, (R)-1-(1-acryloylpiperidin-3-yl)-4-amino-3-(4-phenoxyphenyl)-1H-imidazo[4,5-c]pyridin-2(3H)-one]",Any treatment-related AE,[1],5 (15.2) n (%)
same,Serious AE,[1],0 n (%)
same,AE leading to death,[2],0
same,AE leading to study discontinuation,[2],0
same,Any AE leading to study treatment discontinuation,[2],0
same,Any treatment-related AE,[2],0
same,Serious AE,[2],0
same,Adverse event: Accidental overdose,BTKi 15 mg (n = 32),0%
same,Adverse event: Alanine aminotransferase increased,BTKi 15 mg (n = 32),0%
same,Adverse event: Alopecia,BTKi 15 mg (n = 32),1 (3%)
same,Adverse event: Back pain,BTKi 15 mg (n = 32),1 (3%)
same,Adverse event: Gastroenteritis,BTKi 15 mg (n = 32),0%
same,Adverse event: Headache,BTKi 15 mg (n = 32),3 (9%)
same,Adverse event: Muscle spasticity,BTKi 15 mg (n = 32),0%
same,Adverse event: Nasopharyngitis,BTKi 15 mg (n = 32),0%
same,Adverse event: Oropharyngeal pain,BTKi 15 mg (n = 32),0%
same,Adverse event: Peripheral edema,BTKi 15 mg (n = 32),0%
same,Adverse event: Respiratory tract infection,BTKi 15 mg (n = 32),1 (3%)
same,Adverse event: Upper respiratory tract infection,BTKi 15 mg (n = 32),2 (6%)
same,AE leading to death,[3],0 n (%)
same,AE leading to study discontinuation,[3],0 n (%)
same,Any AE (4 weeks vs. placebo 12 weeks),[3],17 (53.1) n (%)
same,Any AE leading to study treatment discontinuation,[3],0 n (%)
same,Any treatment-related AE,[3],1 (3.1) n (%)
same,Serious AE,[3],0 n (%)
same,AE leading to death,[4],0
same,AE leading to study discontinuation,[4],0
same,Any AE leading to study treatment discontinuation,[4],0
same,Any treatment-related AE,[4],0
same,Serious AE,[4],0
same,Adverse event: Accidental overdose,BTKi 30 mg (n = 33),0%
same,Adverse event: Alanine aminotransferase increased,BTKi 30 mg (n = 33),1 (3%)
same,Adverse event: Alopecia,BTKi 30 mg (n = 33),0%
same,Adverse event: Back pain,BTKi 30 mg (n = 33),2 (6%)
same,Adverse event: Gastroenteritis,BTKi 30 mg (n = 33),0%
same,Adverse event: Headache,BTKi 30 mg (n = 33),1 (3%)
same,Adverse event: Muscle spasticity,BTKi 30 mg (n = 33),1 (3%)
same,Adverse event: Nasopharyngitis,BTKi 30 mg (n = 33),1 (3%)
same,Adverse event: Oropharyngeal pain,BTKi 30 mg (n = 33),1 (3%)
same,Adverse event: Peripheral edema,BTKi 30 mg (n = 33),0%
same,Adverse event: Respiratory tract infection,BTKi 30 mg (n = 33),1 (3%)
same,Adverse event: Upper respiratory tract infection,BTKi 30 mg (n = 33),1 (3%)
same,AE leading to death,[5],0 n (%)
same,AE leading to study discontinuation,[5],0 n (%)
same,Any AE (4 weeks vs. placebo 12 weeks),[5],18 (54.5) n (%)
same,Any AE leading to study treatment discontinuation,[5],0 n (%)
same,Any treatment-related AE,[5],4 (12.1) n (%)
same,Serious AE,[5],0 n (%)
same,AE leading to death,[6],0
same,AE leading to study discontinuation,[6],0
same,Any AE leading to study treatment discontinuation,[6],0
same,Serious AE,[6],0
same,Adverse event: Accidental overdose,BTKi 60 mg (n = 32),3 (9%)
same,Adverse event: Alanine aminotransferase increased,BTKi 60 mg (n = 32),1 (3%)
same,Adverse event: Alopecia,BTKi 60 mg (n = 32),1 (3%)
same,Adverse event: Back pain,BTKi 60 mg (n = 32),0%
same,Adverse event: Gastroenteritis,BTKi 60 mg (n = 32),2 (6%)
same,Adverse event: Headache,BTKi 60 mg (n = 32),4 (13%)
same,Adverse event: Muscle spasticity,BTKi 60 mg (n = 32),2 (6%)
same,Adverse event: Nasopharyngitis,BTKi 60 mg (n = 32),3 (9%)
same,Adverse event: Oropharyngeal pain,BTKi 60 mg (n = 32),1 (3%)
same,Adverse event: Peripheral edema,BTKi 60 mg (n = 32),2 (6%)
same,Adverse event: Respiratory tract infection,BTKi 60 mg (n = 32),1 (3%)
same,Adverse event: Upper respiratory tract infection,BTKi 60 mg (n = 32),1 (3%)
same,AE leading to death,[7],0 n (%)
same,AE leading to study discontinuation,[7],0 n (%)
same,Any AE (4 weeks vs. placebo 12 weeks),[7],16 (50.0) n (%)
same,Any AE leading to study treatment discontinuation,[7],0 n (%)
same,Any treatment-related AE,[7],7 (21.9) n (%)
same,Serious AE,[7],1 (3.1) n (%)
same,Participants with any TEAE,[8],16 (50.0) n (%)
same,Participants with any TEAE leading to death,[8],0 n (%)
same,Participants with any TEAE leading to study treatment discontinuation,[8],0 n (%)
same,Participants with any severe TEAE,[8],0 n (%)
same,Participants with any treatment emergent SAE,[8],0 n (%)
same,Participants with any treatment-related TEAE,[8],6 (18.8) n (%)
same,Participants with study discontinuation due to any TEAE,[8],0 n (%)
same,Participants with treatment emergent SAE(s): Any class,[8],0 n(%)
same,Participants with treatment emergent SAE(s): Multiple sclerosis relapse,[8],0 n(%)
same,Participants with treatment emergent SAE(s): NERVOUS SYSTEM DISORDERS,[8],0 n(%)
same,Participants with any TEAE leading to death,"BTKi 5 (N = 32), Weeks 1 to 4",0 n (%)
same,Participants with any TEAE leading to study treatment discontinuation,"BTKi 5 (N = 32), Weeks 1 to 4",0 n (%)
same,Participants with any severe TEAE,"BTKi 5 (N = 32), Weeks 1 to 4",0 n (%)
same,Participants with any treatment emergent SAE,"BTKi 5 (N = 32), Weeks 1 to 4",0 n (%)
same,Participants with study discontinuation due to any TEAE,"BTKi 5 (N = 32), Weeks 1 to 4",0 n (%)
same,Participants with any TEAE,[9],18 (56.3) n (%)
same,Participants with any TEAE leading to death,[9],0 n (%)
same,Participants with any TEAE leading to study treatment discontinuation,[9],0 n (%)
same,Participants with any severe TEAE,[9],0 n (%)
same,Participants with any treatment emergent SAE,[9],0 n (%)
same,Participants with any treatment-related TEAE,[9],3 (9.4) n (%)
same,Participants with study discontinuation due to any TEAE,[9],0 n (%)
same,Participants with treatment emergent SAE(s): Any class,[9],0 n(%)
same,Participants with treatment emergent SAE(s): Multiple sclerosis relapse,[9],0 n(%)
same,Participants with treatment emergent SAE(s): NERVOUS SYSTEM DISORDERS,[9],0 n(%)
same,Participants with any TEAE leading to death,"BTKi 15 (N = 32), Weeks 1 to 4",0 n (%)
same,Participants with any TEAE leading to study treatment discontinuation,"BTKi 15 (N = 32), Weeks 1 to 4",0 n (%)
same,Participants with any severe TEAE,"BTKi 15 (N = 32), Weeks 1 to 4",0 n (%)
same,Participants with any treatment emergent SAE,"BTKi 15 (N = 32), Weeks 1 to 4",0 n (%)
same,Participants with study discontinuation due to any TEAE,"BTKi 15 (N = 32), Weeks 1 to 4",0 n (%)
same,Participants with any TEAE,[10],17 (51.5) n (%)
same,Participants with any TEAE leading to death,[10],0 n (%)
same,Participants with any TEAE leading to study treatment discontinuation,[10],0 n (%)
same,Participants with any severe TEAE,[10],1 (3.0) n (%)
same,Participants with any treatment emergent SAE,[10],1 (3.0) n (%)
same,Participants with any treatment-related TEAE,[10],4 (12.1) n (%)
same,Participants with study discontinuation due to any TEAE,[10],0 n (%)
same,Participants with treatment emergent SAE(s): Any class,[10],1 (3.0) n(%)
same,Participants with treatment emergent SAE(s): Multiple sclerosis relapse,[10],1 (3.0) n(%)
same,Participants with treatment emergent SAE(s): NERVOUS SYSTEM DISORDERS,[10],1 (3.0) n(%)
same,Participants with any TEAE leading to death,"BTKi 30 (N = 33), Weeks 1 to 4",0 n (%)
same,Participants with any TEAE leading to study treatment discontinuation,"BTKi 30 (N = 33), Weeks 1 to 4",0 n (%)
same,Participants with any severe TEAE,"BTKi 30 (N = 33), Weeks 1 to 4",0 n (%)
same,Participants with any treatment emergent SAE,"BTKi 30 (N = 33), Weeks 1 to 4",0 n (%)
same,Participants with study discontinuation due to any TEAE,"BTKi 30 (N = 33), Weeks 1 to 4",0 n (%)
same,Participants with any TEAE leading to death,[11],0 n (%)
same,Participants with any TEAE leading to study treatment discontinuation,[11],0 n (%)
same,Participants with any severe TEAE,[11],0 n (%)
same,Participants with any treatment emergent SAE,[11],0 n (%)
same,Participants with any treatment-related TEAE,[11],2 (6.1) n (%)
same,Participants with study discontinuation due to any TEAE,[11],0 n (%)
same,Participants with treatment emergent SAE(s): Any class,[11],0 n(%)
same,Participants with treatment emergent SAE(s): Multiple sclerosis relapse,[11],0 n(%)
same,Participants with treatment emergent SAE(s): NERVOUS SYSTEM DISORDERS,[11],0 n(%)
same,Participants with any TEAE leading to death,"BTKi 60 (N = 33), Weeks 1 to 4",0 n (%)
same,Participants with any TEAE leading to study treatment discontinuation,"BTKi 60 (N = 33), Weeks 1 to 4",0 n (%)
same,Participants with any severe TEAE,"BTKi 60 (N = 33), Weeks 1 to 4",0 n (%)
same,Participants with any treatment emergent SAE,"BTKi 60 (N = 33), Weeks 1 to 4",0 n (%)
same,Participants with study discontinuation due to any TEAE,"BTKi 60 (N = 33), Weeks 1 to 4",0 n (%)
same,AESIs (alanine aminotransferase increased >3×ULN) reported in the study,all dose groups,two
same,TEAEs leading to permanent treatment discontinuation,all dose groups,no TEAEs leading to permanent treatment discontinuation
same,Upper respiratory tract infection (TEAE),"in each treatment group (5, 15, 30, 60 mg), Weeks 1 to 4",1 case
same,Deaths,"whole study, all dose groups",No deaths
